Measurements taken from patent publication US20240009359A1, “DRUG ELUTING ELASTIC BANDS AND LIGATION” (MEMORIAL SLOAN KETTERING CANCER CENTER, priority 2020, published 2024).
Entries after “also recorded” stand apart in the source; their conditions may differ.

Key:
[1] = Drug release from rubber bands in physiological medium; format: physicochemical; conditions: pH 7.9, 37 degrees Celsius; for Drug release from rubber band: released drug measured over time
Description: To see whether the lidocaine loaded within the rubber is dispersed evenly, a larger lidocaine loaded rubber slab was prepared and cut into pieces from either the middle or the edges of the slab. The amount of drug released was measured (see FIG. 9K) and normalized to the amount of rubber (see FIG. 9L).

HL-1 cardiomyocytes = experiment: Calcium imaging of HL-1 cardiomyocytes exposed to lidocaine released from rubber bands; format: cell-based; conditions: HL-1 cardiomyocytes before and after exposure to released lidocaine
Description: In accordance with various potential embodiments, and with reference to FIGS. 11A-11C, the released lidocaine was tested on cardiomyocytes. Lidocaine is known to have a cardiotoxic effect in high concentrations, and accordingly, HL-1 cardiomyocytes beating on a plate were imaged using calcium imaging before and after exposure to the released lidocaine (FIG. 11A).

MCF-7 cells = experiment: Activity of salicylic acid released from rubber on MCF-7 cell viability; format: cell-based; conditions: drug loaded in rubber and released into the media in presence of MCF-7 cells
Description: In order to verify that the released drugs are still active after elution from the rubber, salicylic acid was loaded and released into the media in the presence of MCF-7 cells.

Drug release from rubber band [1] | Structure (SMILES) | further results
released | CN(C)CCOC(c1ccccc1)c1ccccc1.Cn1c(=O)c2[nH]c(Cl)nc2n(C)c1=O [dimenhydrinate] | 
released | COC1=CC(=O)C[C@@H](C)[C@]12Oc1c(Cl)c(OC)cc(OC)c1C2=O [griseofulvin] | 
released | O=C(O)c1ccccc1O [salicylic acid] | Cell viability compared to untreated cells (MCF-7 cells): effective in reducing cell viability
released | OB1OCc2cc(F)ccc21 [tavabarole] | 
released | CN1C(C(=O)Nc2ccccn2)=C(O)c2ccccc2S1(=O)=O [piroxicam] | 

The next lines start with the compound.

Structure (SMILES) | Drug release from rubber band [1] | further results
CCN(CC)CC(=O)Nc1c(C)cccc1C [lidocaine] |  | Time at which release peaked ([1]; different loading quantities): ~5 days; Calcium activity (calcium waves, fluorescence pattern) (HL-1 cardiomyocytes): inhibit spontaneous calcium waves; also recorded: much lower level of calcium activity; Rate of contraction (HL-1 cardiomyocytes): rate of contraction dropped
CCCCN1CCCCC1C(=O)Nc1c(C)cccc1C (centres unmarked) [bupivacaine] | released | 
Cc1cc(C2CCCCC2)n(O)c(=O)c1 [ciclopirox olamine] | released | 
